Experimental data published in publication PMC3541360 (2013).

Experiments:
[1] = test system: MNSG4 (oligo TrMNS-I) (DNA, G4) TGGGTCTGAGGGAGGAGGGGCTGGGGGC; assay: CD melting, 295 nm; conditions: 100 mM K+; 10 mM Tris-HCl pH 7.4; 5 µM DNA, 10 µM compound; absolute Tm, free DNA 71.4±0.5 °C
[2] = test system: -80 G4 (oligo Tr-80-I) (DNA, G4) CGGGGGCGCGTGAGGGGCGGGGTGGGC; assay: fluorescent intercalator displacement (thiazole orange); conditions: 60 mM K+; 10 mM potassium cacodylate pH 7.4, 50 mM KCl; 0.25 µM DNA, 0.50 µM thiazole orange displaced
[3] = test system: MNSG4 (oligo TrMNS-I) (DNA, G4) TGGGTCTGAGGGAGGAGGGGCTGGGGGC; assay: as above; conditions: 60 mM K+; 10 mM potassium cacodylate pH 7.4, 50 mM KCl; 0.25 µM DNA, 0.50 µM thiazole orange displaced

Tm (with ligand) [1] | −80 G4DC50 [2] | MSN1DC50 [3] | SMILES
86.2±2.1 °C | 0.19 µM | 0.31 µM | [Cl-].[Cl-].[Cl-].[Cl-].[Cu+2].[Cu+2].c1ccc(CN(CCOc2cc(-c3ccccn3)nc(-c3ccccn3)c2)Cc2ccccn2)nc1
 | 2.22 µM | 0.39 µM | [Cl-].[Cl-].[Pt+2].[Pt+2].c1ccc(CN(CCOc2cc(-c3ccccn3)nc(-c3ccccn3)c2)Cc2ccccn2)nc1
 | 0.55 µM | 0.76 µM | [Pt+2].[S-]CCN1CCCCC1.c1ccc(-c2cc(OCCN3CCOCC3)cc(-c3ccccn3)n2)nc1
